Reference: ChEMBL document CHEMBL4420076, “Amylin and calcitonin receptor agonist” (2017)
Numbered stars: 1 amine (or outer) side, 2 acyl side, 3 side chain; on linkers, the order of the positions; unused ones are H or OH. Peptide text beside a SMILES is read from it. * marks the point of attachment. C20 diacid = O=C(O)CCCCCCCCCCCCCCCCCCC(=O)*; C18 diacid = O=C(O)CCCCCCCCCCCCCCCCC(=O)*; γGlu = O=C(O)[C@H](CCC(=O)[*:2])N[*:1]

How the values were obtained:
[1] = molecular target: T1, Amylin receptor AMY3; CALCR/RAMP3 (Homo sapiens, UniProt O60896+P30988); assay: Displacement of [125I]-labeled rat amylin from human amylin receptor expressed in BHK tkts13 whole cells co-expressing RAMP3 incubated for 60 mins by scintillation proximity assay; format: cell-based
T1 sequence (P30988 whole entry): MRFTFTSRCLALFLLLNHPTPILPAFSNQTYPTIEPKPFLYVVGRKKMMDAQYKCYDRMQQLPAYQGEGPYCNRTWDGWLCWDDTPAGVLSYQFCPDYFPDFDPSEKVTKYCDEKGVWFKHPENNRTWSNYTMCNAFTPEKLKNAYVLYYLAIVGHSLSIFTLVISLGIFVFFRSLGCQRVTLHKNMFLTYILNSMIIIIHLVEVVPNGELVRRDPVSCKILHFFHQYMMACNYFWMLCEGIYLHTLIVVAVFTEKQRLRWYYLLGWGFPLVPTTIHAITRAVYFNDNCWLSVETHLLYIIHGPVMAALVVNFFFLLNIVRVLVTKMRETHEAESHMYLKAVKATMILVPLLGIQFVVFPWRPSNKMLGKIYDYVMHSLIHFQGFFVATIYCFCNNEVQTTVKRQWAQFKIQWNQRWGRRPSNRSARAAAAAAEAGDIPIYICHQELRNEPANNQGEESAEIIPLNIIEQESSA
T1 sequence (O60896 whole entry): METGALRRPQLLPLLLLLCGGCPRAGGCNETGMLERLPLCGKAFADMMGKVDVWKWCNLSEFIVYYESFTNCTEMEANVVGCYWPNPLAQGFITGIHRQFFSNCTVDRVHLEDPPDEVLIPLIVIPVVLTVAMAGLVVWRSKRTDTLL

[2] = molecular target: T1, Amylin receptor AMY3; CALCR/RAMP3; assay: Agonist activity at human amylin receptor expressed in BHK570 cells co-expressing RAMP3 assessed as increase in intracellular cAMP concentration incubated for 3 hrs in absence of albumin by CRE luciferase reporter gene assay; format: functional, cell-based
[3] = Solubility in 100 mM glycylglycine buffer at pH 3.0 incubated for 18 hrs by UPLC analysis; format: physicochemical
[4] = Solubility in 100 mM bistrispropane buffer at pH 6.0 incubated for 18 hrs by UPLC analysis; format: physicochemical
[5] = Solubility in 100 mM bistrispropane buffer at pH 6.5 incubated for 18 hrs by UPLC analysis; format: physicochemical
[6] = Solubility in 100 mM bistrispropane buffer at pH 7.0 incubated for 18 hrs by UPLC analysis; format: physicochemical
[7] = Solubility in 100 mM bistrispropane buffer at pH 7.5 incubated for 18 hrs by UPLC analysis; format: physicochemical
[8] = Solubility in 100 mM bistrispropane buffer at pH 8.0 incubated for 18 hrs by UPLC analysis; format: physicochemical
Calcitonin receptor = molecular target: T2, Calcitonin receptor (Homo sapiens, UniProt P30988); assay: Agonist activity at human calcitonin receptor expressed in BHK570 cells assessed as increase in intracellular cAMP concentration incubated for 3 hrs in absence of albumin by CRE luciferase reporter gene assay; format: functional, cell-based
T2 sequence (P30988 whole entry): T1 sequence (P30988 whole entry)

Row | SMILES | IC50 [1] | EC50 [2] | solubility at 18 h [3] | solubility at 18 h [4] | solubility at 18 h [5] | solubility at 18 h [6] | solubility at 18 h [7] | solubility at 18 h [8] | EC50 (Calcitonin receptor)
1 | CC(C)C[C@H](NC(=O)[C@H](C)NC(=O)[C@H](C)NC(=O)[C@@H](NC(=O)[C@H](CO)NC(=O)[C@H](CC(C)C)NC(=O)[C@H](CCC(=O)O)NC(=O)[C@H](CO)NC(=O)[C@H](C)NC(=O)[C@@H](N)CCC(=O)O)[C@@H](C)O)C(=O)NCC(=O)N[C@@H](CCCNC(=N)N)C(=O)N[C@@H](CC(C)C)C(=O)N[C@@H](CO)C(=O)N[C@@H](C)C(=O)N[C@@H](CCC(=O)O)C(=O)N[C@@H](CC(C)C)C(=O)N[C@@H](Cc1cnc[nH]1)C(=O)N[C@@H](CCC(=O)O)C(=O)N[C@@H](CC(C)C)C(=O)N[C@@H](C)C(=O)N[C@H](C(=O)N[C@@H](CC(C)C)C(=O)N1CCC[C@H]1C(=O)N[C@@H](CCCNC(=N)N)C(=O)N[C@H](C(=O)N[C@@H](CCC(=O)O)C(=O)N[C@H](C(=O)NCC(=O)N1CCC[C@H]1C(=O)N[C@@H](CCC(=O)O)C(=O)N[C@@H](CO)C(=O)N1CCC[C@H]1C(=O)O)[C@@H](C)O)[C@@H](C)O)[C@@H](C)O (H-EASELSTAALGRLSAELHELATLPRTETGPESP-OH) | 294 nM | – | – | – | – | – | – | – | –
2 | CC[C@H](C)[C@H](NC(=O)[C@H](CCC(=O)O)NC(=O)[C@H](CO)NC(=O)[C@H](C)NC(=O)[C@H](CCC(=O)O)NC(=O)CCCCCCCCCCCCCCCCC(=O)O)C(=O)N[C@@H](CO)C(=O)N[C@H](C(=O)N[C@@H](C)C(=O)N[C@@H](C)C(=O)N[C@@H](CC(C)C)C(=O)NCC(=O)N[C@@H](CCCNC(=N)N)C(=O)N[C@@H](CC(C)C)C(=O)N[C@@H](CO)C(=O)N[C@@H](C)C(=O)N[C@@H](CCC(=O)O)C(=O)N[C@@H](CC(C)C)C(=O)N[C@@H](Cc1cnc[nH]1)C(=O)N[C@@H](CCC(=O)O)C(=O)N[C@@H](CC(C)C)C(=O)N[C@@H](C)C(=O)N[C@H](C(=O)N[C@@H](CC(C)C)C(=O)N1CCC[C@H]1C(=O)N[C@@H](CCCNC(=N)N)C(=O)N[C@H](C(=O)N[C@@H](CCC(=O)O)C(=O)N[C@H](C(=O)NCC(=O)N1CCC[C@H]1C(=O)N[C@@H](CCC(=O)O)C(=O)N[C@@H](CO)C(=O)N1CCC[C@H]1C(N)=O)[C@@H](C)O)[C@@H](C)O)[C@@H](C)O)[C@@H](C)O ({C18 diacid}-EASEISTAALGRLSAELHELATLPRTETGPESP-NH2) | 0.429 nM | 0.007 nM | ≥ 200 µM | ≥ 200 µM | ≥ 200 µM | ≥ 200 µM | ≥ 200 µM | ≥ 200 µM | –
3 | CC[C@H](C)[C@H](NC(=O)[C@H](C)NC(=O)[C@@H](NC(=O)[C@H](CO)NC(=O)[C@@H](NC(=O)[C@H](CCC(=O)O)NC(=O)[C@H](CO)NC(=O)[C@H](C)NC(=O)[C@H](CCC(=O)O)NC(=O)CCCCCCCCCCCCCCCCC(=O)O)[C@@H](C)CC)[C@@H](C)O)C(=O)N[C@H](C(=O)NCC(=O)N[C@@H](CCCNC(=N)N)C(=O)N[C@@H](CC(C)C)C(=O)N[C@@H](CO)C(=O)N[C@@H](C)C(=O)N[C@@H](CCC(=O)O)C(=O)N[C@@H](CC(C)C)C(=O)N[C@@H](Cc1cnc[nH]1)C(=O)N[C@@H](CCC(=O)O)C(=O)N[C@H](C(=O)N[C@@H](C)C(=O)N[C@H](C(=O)N[C@@H](CC(C)C)C(=O)N1CCC[C@H]1C(=O)N[C@@H](CCCNC(=N)N)C(=O)N[C@H](C(=O)N[C@@H](CCC(=O)O)C(=O)N[C@H](C(=O)NCC(=O)N1CCC[C@H]1C(=O)N[C@@H](CCC(=O)O)C(=O)N[C@@H](CO)C(=O)N1CCC[C@H]1C(N)=O)[C@@H](C)O)[C@@H](C)O)[C@@H](C)O)[C@@H](C)CC)[C@@H](C)CC ({C18 diacid}-EASEISTAIIGRLSAELHEIATLPRTETGPESP-NH2) | 0.998 nM | 0.01 nM | ≥ 200 µM | ≥ 200 µM | ≥ 200 µM | ≥ 200 µM | ≥ 200 µM | ≥ 200 µM | 0.006 nM
4 | CC(C)C[C@H](NC(=O)[C@H](C)NC(=O)[C@H](C)NC(=O)[C@@H](NC(=O)[C@H](CO)NC(=O)[C@H](CC(C)C)NC(=O)[C@H](CCC(=O)O)NC(=O)[C@H](CO)NC(=O)[C@H](C)NC(=O)CC[C@H](NC(=O)CCCCCCCCCCCCCCCCCCC(=O)O)C(=O)O)[C@@H](C)O)C(=O)NCC(=O)N[C@@H](CCCNC(=N)N)C(=O)N[C@@H](CC(C)C)C(=O)N[C@@H](CO)C(=O)N[C@@H](C)C(=O)N[C@@H](CCC(=O)O)C(=O)N[C@@H](CC(C)C)C(=O)N[C@@H](Cc1cnc[nH]1)C(=O)N[C@@H](CCC(=O)O)C(=O)N[C@@H](CC(C)C)C(=O)N[C@@H](C)C(=O)N[C@H](C(=O)N[C@@H](Cc1ccc(O)cc1)C(=O)N1CCC[C@H]1C(=O)N[C@@H](CCCNC(=N)N)C(=O)N[C@H](C(=O)N[C@@H](CCC(=O)O)C(=O)N[C@H](C(=O)NCC(=O)N[C@@H](CO)C(=O)NCC(=O)N[C@@H](CO)C(=O)N[C@@H](Cc1ccc(O)cc1)C(=O)O)[C@@H](C)O)[C@@H](C)O)[C@@H](C)O ({C20 diacid-γGlu}-ASELSTAALGRLSAELHELATYPRTETGSGSY-OH) | 92 nM | – | ≥ 200 µM | ≥ 200 µM | ≥ 200 µM | ≥ 200 µM | ≥ 200 µM | ≥ 200 µM | –

The remaining compounds from weak to strong by IC50 [1], led by results:

Row | IC50 [1] | EC50 [2] | solubility at 18 h [3] | solubility at 18 h [4] | solubility at 18 h [5] | solubility at 18 h [6] | solubility at 18 h [7] | solubility at 18 h [8] | EC50 (Calcitonin receptor) | SMILES
5 | 298 nM | 0.481 nM | – | – | – | – | – | – | 0.045 nM | CC(C)C[C@H](NC(=O)[C@H](C)NC(=O)[C@H](C)NC(=O)[C@@H](NC(=O)[C@H](CO)NC(=O)[C@H](CC(C)C)NC(=O)[C@H](CCC(=O)O)NC(=O)[C@H](CO)NC(=O)[C@H](C)NC(=O)[C@H](CCC(=O)O)NC(=O)CCCCCCCCCCCCCCCCC(=O)O)[C@@H](C)O)C(=O)NCC(=O)N[C@@H](CCCNC(=N)N)C(=O)N[C@@H](CC(C)C)C(=O)N[C@@H](CO)C(=O)N[C@@H](C)C(=O)N[C@@H](CCC(=O)O)C(=O)N[C@@H](CC(C)C)C(=O)N[C@@H](Cc1cnc[nH]1)C(=O)N[C@@H](CCC(=O)O)C(=O)N[C@@H](CC(C)C)C(=O)N[C@@H](C)C(=O)N[C@H](C(=O)N[C@@H](CC(C)C)C(=O)N1CCC[C@H]1C(=O)N[C@@H](CCCNC(=N)N)C(=O)N[C@H](C(=O)N[C@@H](CCC(=O)O)C(=O)N[C@H](C(=O)NCC(=O)N1CCC[C@H]1C(=O)N[C@@H](CCC(=O)O)C(=O)N[C@@H](CO)C(=O)N1CCC[C@H]1C(=O)O)[C@@H](C)O)[C@@H](C)O)[C@@H](C)O ({C18 diacid}-EASELSTAALGRLSAELHELATLPRTETGPESP-OH)
6 | 0.824 nM | 0.02 nM | ≥ 200 µM | ≥ 200 µM | ≥ 200 µM | ≥ 200 µM | ≥ 200 µM | ≥ 200 µM | 0.014 nM | CC(C)C[C@H](NC(=O)[C@H](CCC(=O)O)NC(=O)[C@H](Cc1cnc[nH]1)NC(=O)[C@H](CC(C)C)NC(=O)[C@H](CCC(=O)O)NC(=O)[C@H](C)NC(=O)[C@H](CO)NC(=O)[C@H](CC(C)C)NC(=O)[C@H](CCCNC(=N)N)NC(=O)CNC(=O)[C@H](CC(C)C)NC(=O)[C@@H](NC(=O)[C@H](C)NC(=O)[C@@H](NC(=O)[C@H](CO)NC(=O)[C@@H](NC(=O)[C@H](CCC(=O)O)NC(=O)[C@H](CO)NC(=O)[C@H](C)NC(=O)[C@H](CCC(=O)O)NC(=O)CCCCCCCCCCCCCCCCC(=O)O)C(C)C)[C@@H](C)O)C(C)C)C(=O)N[C@@H](C)C(=O)N[C@H](C(=O)N[C@@H](CC(C)C)C(=O)N1CCC[C@H]1C(=O)N[C@@H](CCCNC(=N)N)C(=O)N[C@H](C(=O)N[C@@H](CCC(=O)O)C(=O)N[C@H](C(=O)NCC(=O)N1CCC[C@H]1C(=O)N[C@@H](CCC(=O)O)C(=O)N[C@@H](CO)C(=O)N1CCC[C@H]1C(N)=O)[C@@H](C)O)[C@@H](C)O)[C@@H](C)O ({C18 diacid}-EASEVSTAVLGRLSAELHELATLPRTETGPESP-NH2)
